Assay results taken from patent US9518008B2, “(1S,2S,3S,4R)-3-[(1S)-1-acetylamino-2-ethyl-butyl]-4-uanidino-2-hydroxyl-cyclopentyl-1-carboxylic acid hydrates pharmaceutical uses thereof” (Institute of Pharmacology and Toxicology Academy of …, priority 2007, dated 2016).
Like-named read-outs stand apart in the source and are kept apart here.

Columns and labels:
[1] = Determination of hygroscopicity (high humidity test); assay type: physicochemical
Method: The hygroscopicity of the compound of the invention can be tested by a standard hygroscopicity test method. For example, the compound is stored in a sealed vessel at room temperature at a relative humidity of 92.5%, 80% or 75%, and the change in moisture content of the compound is tested by sampling at regular intervals.
At the 5th and 10th days, the products were sampled and determined in aspect of important items relating to stability investigation. […] If the weight gain of a product due to moisture absorption was more than 5%, the product was further experimented according to the same method under a relative humidity of 75%±5%. If the weight gain of a product due to moisture absorption was less than 5%, and other items thereof under investigation met the relevant requirements, no more experiment was needed. The humidity-constant condition could be achieved by placing a saturated saline solution at the lower part of a sealed vessel, e.g., a desiccator, and a NaCl saturated solution (15.5-60° C., a relative humidity of 75%±1%) or a KNO3 saturated solution (25° C., a relative humidity of 92.5%) may be selected according to the requirement of different relative humidity.

[2] = Accelerated stability test of the hydrates; conditions: for Character / Content / Change in weight: 40° C., 75% RH
Method: The stability of the compound of the invention can be tested by a standard stability test method, such as the methods specified in Guidelines for Stability Testing of Drug Substances involved in Appendix XIX C of Chinese Pharmacopoeia (2005 edition). For example, the stability of the compound of the general formula (I) can be tested by an accelerated stability test method, e.g., the stability of the compound of the general formula (I), at 0, 1, 2, 3, 6 months, is tested respectively under the conditions: 40° C., 75% relative humidity; 40° C., 92.5% relative humidity; and 80° C. The change in principal agent and relevant substances can be analyzed by thin layer chromatography, high performance liquid chromatography, and etc.
The device used should be capable of controlling temperature with a precise of ±2° C., and relative humidity with a precise of ±5%, and could monitor true temperature and humidity. The products were sampled respectively at the end of the 1, 2, 3 and 6 months during the test, and determined in aspect of important items relating to stability investigation.

[3] = Dissolution behavior in water; assay type: physicochemical; conditions: for dissolution behavior: 100 ml: 300 mg
Method: (1) water for injection (room temperature)
(2) water for injection (80° C.)
(3) water for injection (room temperature, adjusted to be acidic with hydrochloric acid)
(4) water for injection (adjusted to be basic with disodium hydrogen phosphate)

[4] = Influence of different acidic conditions (pH) on stability of trihydrate solution, sterilization; assay type: physicochemical; conditions: conclusion from sterilization and 60° C. data
Method: The resulting solutions were high pressure steam sterilized at 115° C. for 30 minutes. Then, the solutions were sampled for the determination of change in pH value and change in amount of relevant substances.

[5] = biological target: Influenza A virus (H3N2) neuraminidase (Influenza A virus, UniProt P03482); assay: Neuraminidase inhibition by fluorimetry with 4-MUNANA; assay type: biochemical
[6] = tested on: Influenza B virus (B/Jing Fang/76/98) neuraminidase; assay: as above; assay type: biochemical
[7] = tested on: influenza virus strain FM1 (H1N1); assay: Anti-influenza activity in infected mice (survival); assay type: in vivo, mice (BALB/C); conditions: 5 times, 14th day after infection
Method: A virus drip is prepared typically by including 500 pfu (plaque forming unit) of mice-compliance influenza virus strain in 50 μl phosphate buffer (containing 0.42% bovine serum albumin), and then dropped into nasal cavity of mice to infect them (BALB/C, female, aged 5-6 weeks, weighted 20 g). The compound of the invention is suspended in physiological saline to obtain different doses, typically from 2.5 mg/kg to 40 mg/kg, and is administered to the mice at different time before and after the viral infection, typically administered by intraperitoneal injection for 5 times, i.e., 1 hour, and 2, 3, 4, 5 days after the viral infection. The assay is performed by using 8 or 12, typically 10 mice. The result is expressed by the ratio of the number of survival mice the 14th day after the viral infection to the number of the mice in assay.
A solution was prepared by including 500 pfu (plaque forming unit) of mice-compliance influenza virus strain FM1 (H1N1) in 50 μl phosphate buffer (containing 0.42% bovine serum albumin), and then dropped into nasal cavity of mice (BALB/C, female, aged 5-6 weeks, weighted 20 g) to infect them with an infective dose of 23.7LD50. The compound of the invention was suspended in physiological saline, and was administered in doses of 2.5 mg/kg, 5 mg/kg, 10 mg/kg, 20 mg/kg to the mice by intraperitoneal injection for 5 times, i.e., 1 hour, and 2, 3, 4, 5 days after the viral infection, respectively. The assay was performed by 10 mice. The result was expressed by the ratio of the number of survival mice the 14th day after the viral infection to the number of the mice in assay.

[8] = Relative humidity 92.5%, 25° C.
[9] = Con. 0.01 nM, virus concentration NA 1/40
[10] = Con. 0.1 nM, virus concentration NA 1/40
[11] = Con. 1 nM, virus concentration NA 1/40
[12] = Con. 10 nM, virus concentration NA 1/40
[13] = Con. 100 nM, virus concentration NA 1/40
[14] = virus concentration NA 1/40, read-out: IC50

Influenza A virus (H3N2) neuraminidase, sequence (P03482 whole entry, looked up): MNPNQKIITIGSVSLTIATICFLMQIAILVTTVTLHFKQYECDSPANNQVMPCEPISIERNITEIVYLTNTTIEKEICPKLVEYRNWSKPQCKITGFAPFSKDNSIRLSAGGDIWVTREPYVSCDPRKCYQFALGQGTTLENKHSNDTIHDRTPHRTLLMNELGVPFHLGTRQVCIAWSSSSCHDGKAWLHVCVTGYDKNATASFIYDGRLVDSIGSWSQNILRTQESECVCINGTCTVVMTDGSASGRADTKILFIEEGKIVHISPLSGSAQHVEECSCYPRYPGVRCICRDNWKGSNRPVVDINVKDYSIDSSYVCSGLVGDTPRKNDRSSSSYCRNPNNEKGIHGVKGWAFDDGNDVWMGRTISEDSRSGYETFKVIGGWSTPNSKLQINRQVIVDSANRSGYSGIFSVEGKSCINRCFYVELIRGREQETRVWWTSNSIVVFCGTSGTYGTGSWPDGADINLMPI

With `CCC(CC)[C@H](NC(C)=O)[C@H]1[C@H](O)[C@@H](C(=O)O)C[C@H]1NC(=N)N.CCC(CC)[C@H](NC(C)=O)[C@H]1[C@H](O)[C@@H](C(=O)O)C[C@H]1NC(=N)N.O.O.O` [Sesquihydrate, (1S,2S,3S,4R)-3-[(1S)-1-acetylamino-2-ethyl-butyl]-4-guanidino-2-hydroxy-cyclopentyl-1-carboxylic acid sesquihydrate] the “Hygroscopicity at the 5th day” value ([1]; Relative humidity 75%) was 4.01%, the “Hygroscopicity at the 10th day” value ([1]; Relative humidity 75%) was 6.89% and the “Hygroscopicity at the 5th day” value [1, 8] was 4.48%. For the same compound, the “Hygroscopicity at the 10th day” value [1, 8] was 7.33%.
With `CCC(CC)[C@H](NC(C)=O)[C@H]1[C@H](O)[C@@H](C(=O)O)C[C@H]1NC(=N)N.O.O.O.O.O.O` [Hexahydrate, (1S,2S,3S,4R)-3-[(1S)-1-acetylamino-2-ethyl-butyl]-4-guanidino-2-hydroxy-cyclopentyl-1-carboxylic acid hexahydrate] the “Hygroscopicity at the 5th day” value ([1]; Relative humidity 75%) was 3.86%, the “Hygroscopicity at the 10th day” value ([1]; Relative humidity 75%) was 6.33% and the “Hygroscopicity at the 5th day” value [1, 8] was 4.37%. For the same compound, the “Hygroscopicity at the 10th day” value [1, 8] was 9.96%.
For `CCC(CC)[C@H](NC(C)=O)[C@H]1[C@H](O)[C@@H](C(=O)O)C[C@H]1NC(=N)N.O` [Monohydrate, (1S,2S,3S,4R)-3-[(1S)-1-acetylamino-2-ethyl-butyl]-4-guanidino-2-hydroxy-cyclopentyl-1-carboxylic acid monohydrate], the “Hygroscopicity at the 5th day” value ([1]; Relative humidity 75%) was 2.41%, the “Hygroscopicity at the 10th day” value ([1]; Relative humidity 75%) was 2.77% and the “Hygroscopicity at the 5th day” value [1, 8] was 2.83%. For the same compound, the “Hygroscopicity at the 10th day” value [1, 8] was 3.35%.
With `CCC(CC)[C@H](NC(C)=O)[C@H]1[C@H](O)[C@@H](C(=O)O)C[C@H]1NC(=N)N.O.O.O` [Trihydrate, (1S,2S,3S,4R)-3-[(1S)-1-acetylamino-2-ethyl-butyl]-4-guanidino-2-hydroxy-cyclopentyl-1-carboxylic acid trihydrate] the “Hygroscopicity at the 5th day” value ([1]; Relative humidity 75%) was 1.68%, the “Hygroscopicity at the 10th day” value ([1]; Relative humidity 75%) was 1.83% and the “Hygroscopicity at the 5th day” value [1, 8] was 2.11%. For the same compound, the “Hygroscopicity at the 10th day” value [1, 8] was 2.24%, the weight gain ([1]; ten-day observation test, sealed vessel, room temperature, high relative humidity) was “about 2.24%” and the Character ([2]; 0 month) was “White solid”. For the same compound, the Content ([2]; 0 month) was 99.90%, the Change in weight ([2]; 1 month) was “+0.01%” and the Character ([2]; 1 month) was “White solid”. The Content ([2]; 1 month) was 99.95%, the Change in weight ([2]; 2 months) was −0.02% and the Character ([2]; 2 months) was “White solid”. The Content ([2]; 2 months) was 99.97%, the Change in weight ([2]; 3 months) was “+0.01%” and the Character ([2]; 3 months) was “White solid”. The Content ([2]; 3 months) was 99.96%, the Change in weight ([2]; 6 months) was “+0.01%” and the Character ([2]; 6 months) was “White solid”. For the same compound, the Content ([2]; 6 months) was 99.91%, the “stability” value ([2]; stability test of 1, 2, 3, 6 months) was “good stability” and the dissolution behavior ([3]; (1) water for injection (room temperature)) was “slowly dissolved”. The dissolution behavior ([3]; (2) water for injection (80° C.)) was “rapidly dissolved”, the dissolution behavior ([3]; (3) water for injection, room temperature, acidic with hydrochloric acid) was “relatively easily dissolved” and the “dissolution behavior, condition (3) compared with (4)” value ([3]; (4) water for injection adjusted to be basic with disodium hydrogen phosphate) was “more easily dissolved under acidic condition”. For the same compound, the “optimum pH value (stability in solution)” value [4] was 4.5-6.5, the “inhibitory rate IR” value [5, 9] was 0.63% and the “inhibitory rate IR” value ([5]; Con. 0.01 nM, virus concentration NA 1/80) was 12.33%. The “inhibitory rate IR” value [5, 10] was 13.23%, the “inhibitory rate IR” value ([5]; Con. 0.1 nM, virus concentration NA 1/80) was 24.04% and the “inhibitory rate IR” value [5, 11] was 60.99%. For the same compound, the “inhibitory rate IR” value ([5]; Con. 1 nM, virus concentration NA 1/80) was 63.20%, the “inhibitory rate IR” value [5, 12] was 99.25% and the “inhibitory rate IR” value ([5]; Con. 10 nM, virus concentration NA 1/80) was 98.80%. For the same compound, the “inhibitory rate IR” value [5, 13] was 100.43%, the “inhibitory rate IR” value ([5]; Con. 100 nM, virus concentration NA 1/80) was 99.89% and the IC50 ([5]; average of NA 1/40 and NA 1/80, read-out: Average IC50) was 0.542 nM. For the same compound, the IC50 [5, 14] was 0.673 nM, the IC50 ([5]; virus concentration NA 1/80, read-out: IC50) was 0.411 nM and the “inhibitory rate IR” value ([6]; Con. 0.01 nM, virus concentration NA 1/20) was 8.81%. For the same compound, the “inhibitory rate IR” value [6, 9] was 7.92%, the “inhibitory rate IR” value ([6]; Con. 0.1 nM, virus concentration NA 1/20) was 15.31% and the “inhibitory rate IR” value [6, 10] was 19.17%. For the same compound, the “inhibitory rate IR” value ([6]; Con. 1 nM, virus concentration NA 1/20) was 39.11%, the “inhibitory rate IR” value [6, 11] was 44.84% and the “inhibitory rate IR” value ([6]; Con. 10 nM, virus concentration NA 1/20) was 82.01%. For the same compound, the “inhibitory rate IR” value [6, 12] was 81.45%, the “inhibitory rate IR” value ([6]; Con. 100 nM, virus concentration NA 1/20) was 97.78% and the “inhibitory rate IR” value [6, 13] was 96.71%. It also gave an IC50 ([6]; average of NA 1/20 and NA 1/40, read-out: Average IC50) of 1.07 nM, an IC50 ([6]; virus concentration NA 1/20, read-out: IC50) of 1.14 nM and an IC50 [6, 14] of 0.998 nM. For the same compound, the Survival number ([7]; 2.5 mg/kg intraperitoneal) was 6/10, the Survival rate ([7]; 2.5 mg/kg intraperitoneal) was 60% and the Survival number ([7]; 5.0 mg/kg intraperitoneal) was 7/10. For the same compound, the Survival rate ([7]; 5.0 mg/kg intraperitoneal) was 70%, the Survival number ([7]; 10 mg/kg intraperitoneal) was 8/10 and the Survival rate ([7]; 10 mg/kg intraperitoneal) was 80%. For the same compound, the Survival number ([7]; 20 mg/kg intraperitoneal) was 9/10 and the Survival rate ([7]; 20 mg/kg intraperitoneal) was 90%.
